# Reference: ChEMBL document CHEMBL4184190, “Podophyllotoxin derivatives as an excellent anticancer aspirant for future chemotherapy: A key current imminent needs” (Bioorg Med Chem, 2018)
# Columns and labels:
# Type in all cases: functional, cell-based
# HeLa [1] = test: Cytotoxicity against human HeLa cells after 48 hrs by MTT assay
# DU-145 = test: Cytotoxicity against human DU145 cells after 48 hrs by MTT assay; settings: DU-145, 48 h
# A549 = test: Cytotoxicity against human A549 cells after 48 hrs by MTT assay; settings: A549, 48 h
# MCF7 = test: Cytotoxicity against human MCF7 cells after 48 hrs by MTT assay; settings: MCF7, 48 h
# K562 = test: Cytotoxicity against human K562 cells after 48 hrs by MTT assay; settings: K562, 48 h
# U-251 = test: Cytotoxicity against human U251 cells after 48 hrs by MTT assay; settings: U-251, 48 h
# BGC-823 = test: Cytotoxicity against human BGC823 cells after 48 hrs by MTT assay; settings: BGC-823, 48 h
# HeLa [2] = test: Cytotoxicity against human HeLa cells by MTT assay
compound,measurement,setting,value
COc1cc([C@@H]2c3cc4c(cc3[C@@H](c3nc5ccc(Cl)cc5o3)[C@H]3COC(=O)[C@H]23)OCO4)cc(OC)c1OC,IC50,HeLa [1],1.2 to 5.3 µM
same,IC50,DU-145,1.2 to 5.3 µM
same,IC50,A549,1.2 to 5.3 µM
same,IC50,MCF7,1.2 to 5.3 µM
COc1cc([C@@H]2c3cc4c(cc3[C@@H](Nc3cccc(CN5CCCCC5)c3)[C@H]3COC(=O)[C@H]23)OCO4)cc(OC)c1OC,IC50,A549,14.5 µM
same,IC50,K562,1.1 µM
same,IC50,U-251,0.4 µM
COc1cc([C@@H]2c3cc4c(cc3[C@@H](Nc3ncccc3F)[C@H]3COC(=O)[C@H]23)OCO4)cc(OC)c1OC,IC50,HeLa [1],0.2 µM
same,IC50,MCF7,4.49 µM
same,IC50,BGC-823,2.18 µM
COc1cc([C@@H]2c3cc4c(cc3[C@@H](c3nc5ccc(OC)c(OC)c5o3)[C@H]3COC(=O)[C@H]23)OCO4)cc(OC)c1OC,IC50,HeLa [1],1.2 to 5.3 µM
same,IC50,DU-145,1.2 to 5.3 µM
same,IC50,A549,1.8 µM
same,IC50,MCF7,2 µM
COc1cc([C@@H]2c3cc4c(cc3[C@@H](O[C@@H]3O[C@@H]5CO[C@@H](C)O[C@H]5[C@H](O)[C@H]3O)[C@H]3COC(=O)[C@H]23)OCO4)cc(OC)c1O [ETOPOSIDE],IC50,HeLa [1],2.03 to 5.74 µM
same,IC50,DU-145,2.03 to 5.74 µM
same,IC50,A549,2.03 to 5.74 µM
same,IC50,MCF7,2.03 to 5.74 µM
COc1ccc2nc([C@@H]3c4cc5c(cc4[C@@H](c4cc(OC)c(OC)c(OC)c4)[C@H]4C(=O)OC[C@H]34)OCO5)oc2c1,IC50,HeLa [1],1.2 to 5.3 µM
same,IC50,DU-145,1.2 to 5.3 µM
same,IC50,A549,1.2 to 5.3 µM
same,IC50,MCF7,1.2 to 5.3 µM
CCN(CC)C(=O)c1ccc2[nH]cc(C(=O)C(=O)N[C@@H]3c4cc5c(cc4[C@@H](c4cc(OC)c(OC)c(OC)c4)[C@H]4C(=O)OC[C@@H]43)OCO5)c2c1,IC50,HeLa [2],5.19 µM
COc1cc([C@@H]2c3cc4c(cc3[C@@H](Nc3ncccc3F)[C@H]3COC(=O)[C@H]23)OCO4)cc(OC)c1O,IC50,HeLa [1],0.06 µM
same,IC50,MCF7,1.42 µM
same,IC50,BGC-823,0.96 µM
COc1cc([C@@H]2c3cc4c(cc3[C@@H](NC(=O)C(=O)c3c[nH]c5ccc(C(=O)N6CCCCC6)cc35)[C@H]3COC(=O)[C@H]23)OCO4)cc(OC)c1OC,IC50,HeLa [2],5.57 µM
COc1cc([C@@H]2c3cc4c(cc3[C@@H](c3nc5ccccc5o3)[C@H]3COC(=O)[C@H]23)OCO4)cc(OC)c1OC,IC50,HeLa [1],1.2 to 5.3 µM
same,IC50,DU-145,1.2 to 5.3 µM
same,IC50,A549,1.2 to 5.3 µM
same,IC50,MCF7,1.2 to 5.3 µM
COc1cc([C@@H]2c3cc4c(cc3[C@@H](NC(=O)C(=O)c3c[nH]c5ccc(C(=O)NC(C)C)cc35)[C@H]3COC(=O)[C@H]23)OCO4)cc(OC)c1OC,IC50,HeLa [2],3.92 µM
